Experiments:
Assay type in all cases: cell-based
Details in all cases: compounds at 50 nM and 500 nM, 24 hours
IKZF2 = biological target: T1, IKZF2 (Homo sapiens, UniProt Q96SW2+Q9UKS7); experiment: Western-blot assay, substrate protein degradation in hPBMCs: IKZF2
T1 construct: effects of the compounds of the present disclosure on the expression of target proteins in cells; endogenous in cells; host or cells: human PBMCs (hPBMCs)

IKZF3 = biological target: T2, IKZF3 (Homo sapiens, UniProt Q96SW2+Q9UKT9); experiment: Western-blot assay, substrate protein degradation in hPBMCs: IKZF3
T2 construct: effects of the compounds of the present disclosure on the expression of target proteins in cells; endogenous in cells; host or cells: human PBMCs (hPBMCs)

WEE1 = biological target: T3, WEE1 (Homo sapiens, UniProt P30291+Q96SW2); experiment: Western-blot assay, substrate protein degradation in hPBMCs: WEE1
T3 construct: effects of the compounds of the present disclosure on the expression of target proteins in cells; endogenous in cells; host or cells: human PBMCs (hPBMCs)

IKZF1 = biological target: T4, IKZF1 (Homo sapiens, UniProt Q13422+Q96SW2); experiment: Western-blot assay, substrate protein degradation in hPBMCs: IKZF1
T4 construct: effects of the compounds of the present disclosure on the expression of target proteins in cells; endogenous in cells; host or cells: human PBMCs (hPBMCs)

CK1α = biological target: T5, CK1α (Homo sapiens, UniProt P48729+Q96SW2); experiment: Western-blot assay, substrate protein degradation in hPBMCs: CK1α
T5 construct: effects of the compounds of the present disclosure on the expression of target proteins in cells; endogenous in cells; host or cells: human PBMCs (hPBMCs)

GSPT1 = biological target: T6, GSPT1 (Homo sapiens, UniProt P15170+Q96SW2); experiment: Western-blot assay, substrate protein degradation in hPBMCs: GSPT1
T6 construct: effects of the compounds of the present disclosure on the expression of target proteins in cells; endogenous in cells; host or cells: human PBMCs (hPBMCs)

T5 sequence (P48729 whole entry): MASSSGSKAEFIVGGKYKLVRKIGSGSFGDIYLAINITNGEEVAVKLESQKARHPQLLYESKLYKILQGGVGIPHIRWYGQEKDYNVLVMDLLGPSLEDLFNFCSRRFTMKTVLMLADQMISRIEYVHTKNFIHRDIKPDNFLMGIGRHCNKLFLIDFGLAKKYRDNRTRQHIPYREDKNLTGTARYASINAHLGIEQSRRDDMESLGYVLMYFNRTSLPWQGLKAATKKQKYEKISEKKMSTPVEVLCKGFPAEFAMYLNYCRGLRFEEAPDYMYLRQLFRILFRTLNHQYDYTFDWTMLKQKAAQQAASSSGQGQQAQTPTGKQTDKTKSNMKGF
T5 sequence (Q96SW2 whole entry): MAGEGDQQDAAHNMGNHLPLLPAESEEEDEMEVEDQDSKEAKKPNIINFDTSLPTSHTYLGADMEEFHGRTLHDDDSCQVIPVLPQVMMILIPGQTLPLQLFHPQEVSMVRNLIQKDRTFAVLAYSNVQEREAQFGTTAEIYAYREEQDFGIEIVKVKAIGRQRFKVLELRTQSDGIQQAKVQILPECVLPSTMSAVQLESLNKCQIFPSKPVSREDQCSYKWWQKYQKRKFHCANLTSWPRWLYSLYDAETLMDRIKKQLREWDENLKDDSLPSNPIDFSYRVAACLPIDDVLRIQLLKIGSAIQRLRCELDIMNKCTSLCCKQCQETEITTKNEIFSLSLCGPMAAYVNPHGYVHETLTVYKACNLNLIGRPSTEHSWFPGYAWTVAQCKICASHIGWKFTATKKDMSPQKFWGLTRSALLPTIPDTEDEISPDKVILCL
T5 sequence (Q16531 whole entry partner): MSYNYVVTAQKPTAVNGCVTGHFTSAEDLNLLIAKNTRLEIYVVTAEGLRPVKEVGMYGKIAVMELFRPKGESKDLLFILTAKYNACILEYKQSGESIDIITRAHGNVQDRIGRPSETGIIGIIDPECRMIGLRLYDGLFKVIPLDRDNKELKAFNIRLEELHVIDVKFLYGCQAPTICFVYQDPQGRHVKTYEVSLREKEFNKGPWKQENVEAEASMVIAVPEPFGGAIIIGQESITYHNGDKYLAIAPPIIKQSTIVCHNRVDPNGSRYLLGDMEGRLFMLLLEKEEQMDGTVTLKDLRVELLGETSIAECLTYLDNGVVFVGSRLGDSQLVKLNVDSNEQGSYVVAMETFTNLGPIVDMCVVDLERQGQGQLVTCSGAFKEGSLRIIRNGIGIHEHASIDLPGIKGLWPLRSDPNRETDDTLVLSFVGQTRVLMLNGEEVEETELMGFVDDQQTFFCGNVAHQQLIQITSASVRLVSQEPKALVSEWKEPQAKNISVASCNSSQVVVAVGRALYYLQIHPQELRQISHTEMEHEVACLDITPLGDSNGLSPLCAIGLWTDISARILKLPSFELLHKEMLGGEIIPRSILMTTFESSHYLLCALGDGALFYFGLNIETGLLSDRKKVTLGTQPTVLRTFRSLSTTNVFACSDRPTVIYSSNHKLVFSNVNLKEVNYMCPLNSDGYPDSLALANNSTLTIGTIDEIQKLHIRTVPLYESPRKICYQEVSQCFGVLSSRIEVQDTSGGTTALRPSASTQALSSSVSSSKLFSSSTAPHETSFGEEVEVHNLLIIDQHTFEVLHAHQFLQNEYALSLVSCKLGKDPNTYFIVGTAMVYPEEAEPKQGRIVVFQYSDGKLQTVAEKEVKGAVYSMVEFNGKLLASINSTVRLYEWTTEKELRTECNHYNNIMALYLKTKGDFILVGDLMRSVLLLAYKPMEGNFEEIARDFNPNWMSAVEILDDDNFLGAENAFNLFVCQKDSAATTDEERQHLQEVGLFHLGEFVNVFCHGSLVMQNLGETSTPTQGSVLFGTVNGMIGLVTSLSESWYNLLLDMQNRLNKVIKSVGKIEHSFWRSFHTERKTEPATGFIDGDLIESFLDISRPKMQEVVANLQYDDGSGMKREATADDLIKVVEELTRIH
T4 sequence (Q13422 whole entry): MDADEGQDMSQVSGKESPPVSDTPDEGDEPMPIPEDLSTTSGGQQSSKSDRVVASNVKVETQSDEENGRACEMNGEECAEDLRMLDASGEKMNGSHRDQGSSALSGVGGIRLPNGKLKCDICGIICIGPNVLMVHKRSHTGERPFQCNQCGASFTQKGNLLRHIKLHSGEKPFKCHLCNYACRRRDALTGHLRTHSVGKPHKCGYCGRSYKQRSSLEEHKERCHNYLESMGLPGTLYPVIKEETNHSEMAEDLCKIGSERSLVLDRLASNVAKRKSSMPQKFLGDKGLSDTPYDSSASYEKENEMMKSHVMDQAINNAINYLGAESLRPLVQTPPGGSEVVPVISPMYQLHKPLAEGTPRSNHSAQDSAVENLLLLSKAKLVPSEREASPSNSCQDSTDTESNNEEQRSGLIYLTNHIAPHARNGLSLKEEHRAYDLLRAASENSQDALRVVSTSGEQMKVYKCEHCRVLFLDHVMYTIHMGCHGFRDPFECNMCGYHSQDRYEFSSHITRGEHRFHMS
T4 sequence (Q96SW2 whole entry): as the sequence (Q96SW2 whole entry) above
T4 sequence (Q16531 whole entry partner): as the sequence (Q16531 whole entry partner) above
T3 sequence (P30291 whole entry): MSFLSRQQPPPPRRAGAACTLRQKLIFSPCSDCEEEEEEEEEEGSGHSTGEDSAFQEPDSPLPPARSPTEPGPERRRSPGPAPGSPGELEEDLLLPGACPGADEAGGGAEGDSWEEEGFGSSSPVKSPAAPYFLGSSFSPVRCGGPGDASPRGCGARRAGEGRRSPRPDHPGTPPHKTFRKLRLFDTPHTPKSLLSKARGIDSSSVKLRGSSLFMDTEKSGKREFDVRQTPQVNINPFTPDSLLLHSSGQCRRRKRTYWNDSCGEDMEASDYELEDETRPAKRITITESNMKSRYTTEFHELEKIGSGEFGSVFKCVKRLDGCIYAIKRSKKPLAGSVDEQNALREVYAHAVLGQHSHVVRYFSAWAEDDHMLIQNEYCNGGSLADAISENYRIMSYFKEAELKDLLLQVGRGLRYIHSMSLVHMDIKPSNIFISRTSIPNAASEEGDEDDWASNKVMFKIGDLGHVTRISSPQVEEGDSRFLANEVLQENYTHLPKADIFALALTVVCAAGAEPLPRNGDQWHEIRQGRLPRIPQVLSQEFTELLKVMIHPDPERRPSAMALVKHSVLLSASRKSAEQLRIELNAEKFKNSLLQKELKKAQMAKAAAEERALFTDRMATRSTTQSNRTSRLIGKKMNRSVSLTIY
T3 sequence (Q96SW2 whole entry): as the sequence (Q96SW2 whole entry) above
T3 sequence (Q16531 whole entry partner): as the sequence (Q16531 whole entry partner) above
T1 sequence (Q9UKS7 whole entry): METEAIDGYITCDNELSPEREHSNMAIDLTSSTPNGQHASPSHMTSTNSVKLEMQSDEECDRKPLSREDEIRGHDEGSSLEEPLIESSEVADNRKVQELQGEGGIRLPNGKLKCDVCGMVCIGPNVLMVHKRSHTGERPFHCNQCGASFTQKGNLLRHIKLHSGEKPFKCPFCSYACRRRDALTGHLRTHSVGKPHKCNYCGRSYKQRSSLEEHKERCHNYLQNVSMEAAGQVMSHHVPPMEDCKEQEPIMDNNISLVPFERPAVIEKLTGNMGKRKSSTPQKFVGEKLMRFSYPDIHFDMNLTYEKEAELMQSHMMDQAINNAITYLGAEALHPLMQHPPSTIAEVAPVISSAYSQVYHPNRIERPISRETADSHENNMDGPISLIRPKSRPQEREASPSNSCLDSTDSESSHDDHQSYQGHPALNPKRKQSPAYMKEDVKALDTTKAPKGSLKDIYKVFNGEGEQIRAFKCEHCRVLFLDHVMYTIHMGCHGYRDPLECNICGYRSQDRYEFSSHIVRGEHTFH
T1 sequence (Q96SW2 whole entry): as the sequence (Q96SW2 whole entry) above
T1 sequence (Q16531 whole entry partner): as the sequence (Q16531 whole entry partner) above
T2 sequence (Q9UKT9 whole entry): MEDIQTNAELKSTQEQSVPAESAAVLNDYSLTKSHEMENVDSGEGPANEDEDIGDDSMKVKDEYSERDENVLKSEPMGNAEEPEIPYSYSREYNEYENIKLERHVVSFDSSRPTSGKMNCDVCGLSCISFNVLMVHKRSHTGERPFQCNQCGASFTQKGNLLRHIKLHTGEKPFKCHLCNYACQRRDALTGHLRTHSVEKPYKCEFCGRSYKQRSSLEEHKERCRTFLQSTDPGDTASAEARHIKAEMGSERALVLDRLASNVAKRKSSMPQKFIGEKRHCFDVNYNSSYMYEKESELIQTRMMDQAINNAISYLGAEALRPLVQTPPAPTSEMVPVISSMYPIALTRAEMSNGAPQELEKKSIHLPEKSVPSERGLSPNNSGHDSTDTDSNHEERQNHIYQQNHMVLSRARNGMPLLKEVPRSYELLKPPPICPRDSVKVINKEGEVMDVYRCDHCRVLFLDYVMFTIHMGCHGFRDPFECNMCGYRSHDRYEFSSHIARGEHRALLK
T2 sequence (Q96SW2 whole entry): as the sequence (Q96SW2 whole entry) above
T2 sequence (Q16531 whole entry partner): as the sequence (Q16531 whole entry partner) above

| SMILES | IKZF2 substrate protein remaining % (IKZF2) | IKZF3 substrate protein remaining % (IKZF3) | WEE1 substrate protein remaining % (WEE1) | IKZF1 substrate protein remaining % (IKZF1) | CK1α substrate protein remaining % (CK1α) | GSPT1 substrate protein remaining % (GSPT1) |
| --- | --- | --- | --- | --- | --- | --- |
| C[C@@H]1CN(C(c2ccccc2)c2ccccc2)CCN1Cc1ccc2c(c1)CN(N1CCC(=O)NC1=O)C2=O [GT-06448, (R)-1-(5-((4-benzhydryl-2-methylpiperazin-1-yl)methyl)-1-oxoisoindolin-2-yl)dihydropyrimidine-2,4(1H,3H)-dione] | A ("A" is defined as 0% ≤ substrate protein remaining % ≤ 80%) | A ("A" is defined as 0% ≤ substrate protein remaining % ≤ 80%) | B ("B" is defined as 80%< substrate protein remaining %≤ 100%) | B ("B" is defined as 80%< substrate protein remaining %≤ 100%) | B ("B" is defined as 80%< substrate protein remaining %≤ 100%) | A ("A" is defined as 0% ≤ substrate protein remaining % ≤ 80%) |
| C[C@@H]1CN(C(c2ccccc2)c2ccccc2)CCN1Cc1ccc2c(c1)C(=O)N(N1CCC(=O)NC1=O)C2=O [GT-06449, (R)-5-((4-benzhydryl-2-methylpiperazin-1-yl)methyl)-2-(2,4-dioxotetrahydropyrimidin-1(2H)-yl)isoindoline-1,3-dione] | A ("A" is defined as 0% ≤ substrate protein remaining % ≤ 80%) | A ("A" is defined as 0% ≤ substrate protein remaining % ≤ 80%) | B ("B" is defined as 80%< substrate protein remaining %≤ 100%) | B ("B" is defined as 80%< substrate protein remaining %≤ 100%) | B ("B" is defined as 80%< substrate protein remaining %≤ 100%) | A ("A" is defined as 0% ≤ substrate protein remaining % ≤ 80%) |
| O=C1CCN(N2C(=O)c3ccc(CN4CC5CCC4CN5C(c4ccccc4)c4ccccc4)cc3C2=O)C(=O)N1 (stereo not drawn) [GT-06451, 5-((5-benzhydryl-2,5-diazabicyclo[2.2.2]octan-2-yl)methyl)-2-(2,4-dioxotetrahydropyrimidin-1(2H)-yl)isoindoline-1,3-dione] | B ("B" is defined as 80%< substrate protein remaining %≤ 100%) | B ("B" is defined as 80%< substrate protein remaining %≤ 100%) | A ("A" is defined as 0% ≤ substrate protein remaining % ≤ 80%) | B ("B" is defined as 80%< substrate protein remaining %≤ 100%) | B ("B" is defined as 80%< substrate protein remaining %≤ 100%) | B ("B" is defined as 80%< substrate protein remaining %≤ 100%) |
| O=C1CCN(N2Cc3cc(CN4CC5CCC(C4)N5C(c4ccccc4)c4ccccc4)ccc3C2=O)C(=O)N1 [GT-06452, 1-(5-((8-benzhydryl-3,8-diazabicyclo[3.2.1]octan-3-yl)methyl)-1-oxoisoindolin-2-yl)dihydropyrimidine-2,4(1H,3H)-dione] | B ("B" is defined as 80%< substrate protein remaining %≤ 100%) | B ("B" is defined as 80%< substrate protein remaining %≤ 100%) | A ("A" is defined as 0% ≤ substrate protein remaining % ≤ 80%) | B ("B" is defined as 80%< substrate protein remaining %≤ 100%) | B ("B" is defined as 80%< substrate protein remaining %≤ 100%) | B ("B" is defined as 80%< substrate protein remaining %≤ 100%) |
| O=C1CCN(N2C(=O)c3ccc(CN4CC5CCC(C4)N5C(c4ccccc4)c4ccccc4)cc3C2=O)C(=O)N1 [GT-06453, 5-((8-benzhydryl-3,8-diazabicyclo[3.2.1]octan-3-yl)methyl)-2-(2,4-dioxotetrahydropyrimidin-1(2H)-yl)isoindoline-1,3-dione] | A ("A" is defined as 0% ≤ substrate protein remaining % ≤ 80%) | B ("B" is defined as 80%< substrate protein remaining %≤ 100%) | B ("B" is defined as 80%< substrate protein remaining %≤ 100%) | B ("B" is defined as 80%< substrate protein remaining %≤ 100%) | B ("B" is defined as 80%< substrate protein remaining %≤ 100%) | B ("B" is defined as 80%< substrate protein remaining %≤ 100%) |
| O=C1CCN(N2Cc3cc(CN4C5CCC4CN(C(c4ccccc4)c4ccccc4)C5)ccc3C2=O)C(=O)N1 [GT-06454, 1-(5-((3-benzhydryl-3,8-diazabicyclo[3.2.1]octan-8-yl)methyl)-1-oxoisoindolin-2-yl)dihydropyrimidine-2,4(1H,3H)-dione] | B ("B" is defined as 80%< substrate protein remaining %≤ 100%) | B ("B" is defined as 80%< substrate protein remaining %≤ 100%) | A ("A" is defined as 0% ≤ substrate protein remaining % ≤ 80%) | B ("B" is defined as 80%< substrate protein remaining %≤ 100%) | B ("B" is defined as 80%< substrate protein remaining %≤ 100%) | B ("B" is defined as 80%< substrate protein remaining %≤ 100%) |
| O=C1CCN(N2C(=O)c3ccc(CN4C5CCC4CN(C(c4ccccc4)c4ccccc4)C5)cc3C2=O)C(=O)N1 [GT-06455, 5-((3-benzhydryl-3,8-diazabicyclo[3.2.1]octan-8-yl)methyl)-2-(2,4-dioxotetrahydropyrimidin-1(2H)-yl)isoindoline-1,3-dione] | B ("B" is defined as 80%< substrate protein remaining %≤ 100%) | B ("B" is defined as 80%< substrate protein remaining %≤ 100%) | A ("A" is defined as 0% ≤ substrate protein remaining % ≤ 80%) | B ("B" is defined as 80%< substrate protein remaining %≤ 100%) | B ("B" is defined as 80%< substrate protein remaining %≤ 100%) | B ("B" is defined as 80%< substrate protein remaining %≤ 100%) |
| CC1(C)CCC(CN2CC3CC(C2)N3Cc2ccc3c(c2)C(=O)N(N2CCC(=O)NC2=O)C3=O)=C(c2ccc(Cl)cc2)C1 [GT-06457, 5-((3-((4'-chloro-5,5-dimethyl-3,4,5,6-tetrahydro-[1,1'-biphenyl]-2-yl)methyl)-3,6-diazabicyclo[3.1.1]heptan-6-yl)methyl)-2-(2,4-dioxotetrahydropyrimidin-1(2H)-yl)isoindoline-1,3-dione] | A ("A" is defined as 0% ≤ substrate protein remaining % ≤ 80%) | A ("A" is defined as 0% ≤ substrate protein remaining % ≤ 80%) | A ("A" is defined as 0% ≤ substrate protein remaining % ≤ 80%) | A ("A" is defined as 0% ≤ substrate protein remaining % ≤ 80%) | A ("A" is defined as 0% ≤ substrate protein remaining % ≤ 80%) | A ("A" is defined as 0% ≤ substrate protein remaining % ≤ 80%) |
| CC1(C)CCC(CN2C3CC2CN(Cc2ccc4c(c2)CN(N2CCC(=O)NC2=O)C4=O)C3)=C(c2ccc(Cl)cc2)C1 [GT-06458, 1-(5-((6-((4'-chloro-5,5-dimethyl-3,4,5,6-tetrahydro-[1,1'-biphenyl]-2-yl)methyl)-3,6-diazabicyclo[3.1.1]heptan-3-yl)methyl)-1-oxoisoindolin-2-yl)dihydropyrimidine-2,4(1H,3H)-dione] | A ("A" is defined as 0% ≤ substrate protein remaining % ≤ 80%) | A ("A" is defined as 0% ≤ substrate protein remaining % ≤ 80%) | A ("A" is defined as 0% ≤ substrate protein remaining % ≤ 80%) | A ("A" is defined as 0% ≤ substrate protein remaining % ≤ 80%) | A ("A" is defined as 0% ≤ substrate protein remaining % ≤ 80%) | A ("A" is defined as 0% ≤ substrate protein remaining % ≤ 80%) |
| CC1(C)CCC(CN2C3CC2CN(Cc2ccc4c(c2)C(=O)N(N2CCC(=O)NC2=O)C4=O)C3)=C(c2ccc(Cl)cc2)C1 [GT-06459, 5-((6-((4'-chloro-5,5-dimethyl-3,4,5,6-tetrahydro-[1,1'-biphenyl]-2-yl)methyl)-3,6-diazabicyclo[3.1.1]heptan-3-yl)methyl)-2-(2,4-dioxotetrahydropyrimidin-1(2H)-yl)isoindoline-1,3-dione] | A ("A" is defined as 0% ≤ substrate protein remaining % ≤ 80%) | A ("A" is defined as 0% ≤ substrate protein remaining % ≤ 80%) | A ("A" is defined as 0% ≤ substrate protein remaining % ≤ 80%) | A ("A" is defined as 0% ≤ substrate protein remaining % ≤ 80%) | A ("A" is defined as 0% ≤ substrate protein remaining % ≤ 80%) | A ("A" is defined as 0% ≤ substrate protein remaining % ≤ 80%) |
| O=C1CCN(N2Cc3cc(CN4CCN(c5cccc(F)c5)CC4)ccc3C2=O)C(=O)N1 [GT-06701, 1-(5-((4-(3-fluorophenyl)piperazin-1-yl)methyl)-1-oxoisoindolin-2-yl)dihydropyrimidine-2,4(1H,3H)-dione] | B ("B" is defined as 80%< substrate protein remaining %≤ 100%) | B ("B" is defined as 80%< substrate protein remaining %≤ 100%) | B ("B" is defined as 80%< substrate protein remaining %≤ 100%) | B ("B" is defined as 80%< substrate protein remaining %≤ 100%) | A ("A" is defined as 0% ≤ substrate protein remaining % ≤ 80%) | A ("A" is defined as 0% ≤ substrate protein remaining % ≤ 80%) |
